From patent US8536187B2 (Gilead Sciences, Inc., priority 2008, dated 2013)

Assays:
[1] = system: HCV replicon in human hepatoma Huh-7 cell line; experiment: Anti-HCV replicon assay, EC50 (luciferase luminescence); assay type: cell-based; details: Hepatitis C virus, Huh-7, 72 h
In short: (§1)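 Huh-7 cells carrying HCV replicon (6000/well) incubated with serially diluted compound, 0.5% DMSO final, 3 days at 37° C, 5% CO2. EC50 from luciferase luminescence after 30 min lysis/substrate at room temperature; CC50 from CellTiter-Glo luminescence after 10 min at room temperature.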

[2] = CC50 assay (CellTiter-Glo) in Huh-7 HCV replicon cells; assay type: cell-based; details: human
In short: as §1

Row | SMILES | EC50 [1] | CC50 at 3 days ([2]; Table 2, 3 days incubation) | CC50 at 3 days ([2]; Table 1, 3 days incubation)
1 | Cc1ccc(-c2ccc3nc(NCc4cccc(S(C)(=O)=O)c4)nc(NCC(F)(F)F)c3n2)cc1S(C)(=O)=O [Example 173, N^2-(3-(methylsulfonyl)benzyl)-6-(4-methyl-3-(methylsulfonyl)phenyl)-N^4-(2,2,2-trifluoroethyl) pyrido[3,2-d]pyrimidine-2,4-diamine] | < 0.1 µM | 1 to 10 µM | –
2 | C#Cc1ccc2nc(N[C@H](C)c3ccc(S(N)(=O)=O)cc3)nc(OC3(C)CC3)c2n1 [Example 295, (R)-4-(1-(6-ethynyl-4-(1-methylcyclopropoxy)pyrido [3,2-d]pyrimidin-2-ylamino)ethyl)benzenesulfonamide] | < 0.1 µM | 1 to 10 µM | –
3 | NS(=O)(=O)c1cc(CNc2nc(NCC(F)(F)F)c3nc(C#CC4CC4)ccc3n2)cc(C(F)(F)F)c1 [Example 278, 3-((6-(2-cyclopropylethynyl)-4-(2,2,2-trifluoroethylamino)pyrido[3,2-d]pyrimidin-2-ylamino)methyl)-5-(trifluoro-methyl)benzenesulfonamide] | 0.1 to 0.25 µM | > 10 µM | –
4 | C[C@@H](Nc1nc(NC2(C(F)(F)F)CC2)c2nc(-c3cnc(NC4CC4)c(F)c3)ccc2n1)c1ccc(-n2cncn2)cc1 [Example 131, N^2-((R)-1-(4-(1H-1,2,4-triazol-1-yl)phenyl)ethyl)-6-(6-(cyclopropylamino)-5-fluoropyridin-3-yl)-N^4-(1-(trifluoromethyl)cyclopropyl) pyrido[3,2-d]pyrimidine-2,4-diamine] | 0.1 to 0.25 µM | 1 to 10 µM | –
5 | CCc1cc(S(N)(=O)=O)ccc1CNc1nc(NC2(C(F)(F)F)CC2)c2nc(-c3ccc(F)cc3)ccc2n1 [Example 68, 3-ethyl-4-((6-(4-fluorophenyl)-4-(1-(trifluoromethyl)cyclo-propylamino)pyrido[3,2-d]pyrimidin-2-ylamino)methyl) benzenesulfonamide] | 0.25 to 2 µM | 1 to 10 µM | –
6 | COc1ccc(-c2ccc3nc(N[C@H](C)c4ccc(-n5cncn5)cc4)nc(NCC(F)(F)F)c3n2)cc1S(C)(=O)=O [Example 150, N^2-((R)-1-(4-(1H-1,2,4-triazol-1-yl)phenyl)ethyl)-6-(4-methoxy-3-(methylsulfonyl)phenyl)-N^4-(2,2,2-trifluoroethyl) pyrido[3,2-d]pyrimidine-2,4-diamine] | < 0.1 µM | 1 to 10 µM | –
7 | COc1ccc(-c2ccc3nc(NCc4ccc(S(N)(=O)=O)cc4)nc(NCC(F)(F)F)c3n2)cc1S(N)(=O)=O [Example 225, 4-((6-(4-methoxy-3-(aminosulfonyl)phenyl)-4-(2,2,2-trifluoroethylamino)pyrido[3,2-d]pyrimidin-2-ylamino)methyl)benzene-sulfonamide] | < 0.1 µM | > 10 µM | –
8 | COc1ccc(-c2ccc3nc(NCc4cccc(S(N)(=O)=O)c4)nc(NCC(F)(F)F)c3n2)cc1S(C)(=O)=O [Example 144, 3-((6-(4-methoxy-3-(methylsulfonyl)phenyl)-4-(2,2,2-trifluoroethylamino)pyrido[3,2-d]pyrimidin-2-ylamino)methyl)benzene-sulfonamide] | < 0.1 µM | 1 to 10 µM | –
9 | NS(=O)(=O)c1cc(Cl)cc(CNc2nc(NC3(C(F)(F)F)CC3)c3nc(C#CC4CC4)ccc3n2)c1 [Example 91, 3-chloro-5-((6-(2-cyclopropylethynyl)-4-(1-(trifluoromethyl)cyclopropyl-amino)pyrido[3,2-d]pyrimidin-2-ylamino)methyl)benzene-sulfonamide] | < 0.1 µM | > 10 µM | –
10 | COc1ccc(-c2ccc3nc(NCc4ccc(F)c(F)c4)nc(NCC(F)(F)F)c3n2)cc1S(N)(=O)=O [Example 234, 5-(2-(3,4-difluorobenzylamino)-4-(2,2,2-trifluoroethylamino)pyrido[3,2-d]pyrimidin-6-yl)-2-methoxybenzenesulfonamide] | < 0.1 µM | > 10 µM | –
11 | C[C@@H](Nc1nc(OC2CC2)c2nc(C#CC3CC3)ccc2n1)c1ccc(S(N)(=O)=O)cc1 [Example 32, (R)-4-(1-(4-cyclopropoxy-6-(2-cyclopropylethynyl)pyrido[3,2-d]pyrimidin-2-ylamino)ethyl)benzenesulfonamide] | < 0.1 µM | > 10 µM | –
12 | CC(Nc1nc(NCC(F)(F)F)c2nc(-c3cccc(S(C)(=O)=O)c3)ccc2n1)c1ccc(-n2cncn2)cc1 (stereo not drawn) [Example 19, 6-(3-Methanesulfonyl-phenyl)-N2-[1-(4-[1,2,4]triazol-1-yl-phenyl)-ethyl]-N4-(2,2,2-trifluoro-ethyl)-pyrido[3,2-d]pyrimidine-2,4-diamine] | < 0.1 µM | – | 10 to 25 µM
13 | CC1(Oc2nc(NCc3ccc(-n4cncn4)cc3)nc3ccc(-c4ccc(OC(F)F)c(S(C)(=O)=O)c4)nc23)CC1 [Example 191, N-(4-(1H-1,2,4-triazol-1-yl)benzyl)-6-(4-(difluoro-methoxy)-3-(methylsulfonyl)phenyl)-4-(1-methylcyclo-propoxy)pyrido[3,2-d] pyrimidin-2-amine] | < 0.1 µM | > 10 µM | –
14 | Cc1cc(S(N)(=O)=O)c(C)cc1CNc1nc(NC2(C(F)(F)F)CC2)c2nc(-c3ccc(F)cc3)ccc2n1 [Example 83, 4-((6-(4-fluorophenyl)-4-(1-(trifluoromethyl)cyclopropylamino)pyrido[3,2-d]pyrimidin-2-ylamino)methyl)-2.5-dimethylbenzenesulfonamide] | 0.1 to 0.25 µM | > 10 µM | –
15 | COc1ccc(-c2ccc3nc(NCc4cccc(-n5cncn5)c4)nc(NCC(F)(F)F)c3n2)cc1S(C)(=O)=O [Example 20] | < 0.1 µM | – | > 25 µM
16 | [2H]C([2H])([2H])C([2H])([2H])Oc1ccc(-c2ccc3nc(NCc4ccc(-n5cncn5)cc4)nc(NCC(F)(F)F)c3n2)cn1 [Example 256, N^2-(4-(1H-1,2,4-triazol-1-yl)benzyl)-6-(6-pentadeutero-ethoxypyridin-3-yl)-N^4-(2,2,2-trifluoroethyl)pyrido[3,2-d] pyrimidine-2,4-diamine] | < 0.1 µM | > 10 µM | –
17 | COc1ccc(-c2ccc3nc(NC(C)c4cc(F)cc(F)c4)nc(NCC(F)(F)F)c3n2)cc1S(C)(=O)=O (stereo not drawn) [Example 180, N^2-(1-(3,5-difluorophenyl)ethyl)-6-(4-methoxy-3-(methylsulfonyl)phenyl)-N^4-(2,2,2-trifluoroethyl)pyrido [3,2-d]pyrimidine-2,4-diamine] | 0.1 to 0.25 µM | 1 to 10 µM | –
18 | C=Cc1ccc2nc(N[C@H](C)c3ccc(S(N)(=O)=O)cc3)nc(NCC(F)(F)F)c2n1 [Example 312, (R)-4-(1-(4-(2,2,2-trifluoro-ethylamino)-6-vinylpyrido [3,2-d]pyrimidin-2-ylamino)ethyl)benzenesulfonamide] | 0.1 to 0.25 µM | > 10 µM | –
19 | CS(=O)(=O)c1cccc(CNc2nc(NCC(F)(F)F)c3nc(-c4ccc(OC(F)F)c(S(C)(=O)=O)c4)ccc3n2)c1 [Example 174, N^2-(3-(methylsulfonyl)benzyl)-6-(4-(difluoromethoxy)-3-(methylsulfonyl)phenyl)-N^4-(2,2,2-trifluoroethyl)pyrido [3,2-d]pyrimidine-2,4-diamine] | < 0.1 µM | < 1 µM | –
20 | C#Cc1ccc2nc(NCc3ccc(-n4cncn4)cc3)nc(N[C@@H](C)C(F)(F)F)c2n1 [Example 291, (S)-N^2-(4-(1H-1,2,4-triazol-1-yl)benzyl)-6-ethynyl-N^4-(1,1,1-trifluoropropan-2-yl)pyrido [3,2-d]pyrimidine-2,4-diamine] | < 0.1 µM | > 10 µM | –
21 | CC(C)Oc1ccc(-c2ccc3nc(NCc4ccc(-n5cncn5)cc4)nc(NCC(F)(F)F)c3n2)cn1 [Example 240, N^2-(4-(1H-1,2,4-triazol-1-yl)benzyl)-6-(6-isopropoxy-pyridin-3-yl)-N^4-(2,2,2-trifluoroethyl)pyrido[3,2-d] pyrimidine-2,4-diamine] | < 0.1 µM | > 10 µM | –
22 | NS(=O)(=O)c1cc(Cl)cc(CNc2nc(NC3(C(F)(F)F)CC3)c3nc(-c4ccc(NC(=O)C5(C(F)(F)F)CC5)cc4)ccc3n2)c1 [Example 48, 3-chloro-5-((6-(4-(1-(trifluoromethyl)cyclopropyl-carboxamido)phenyl)-4-(1-(trifluoromethyl)cyclopropyl-amino)pyrido[3,2-d]pyrimidin-2-ylamino)methyl)benzene-sulfonamide] | < 0.1 µM | 1 to 10 µM | –
23 | CCS(=O)(=O)c1cccc(-c2ccc3nc(N[C@H](C)c4ccc(-n5cncn5)cc4)nc(NCC(F)(F)F)c3n2)c1 [Example 182, N^2-((R)-1-(4-(1H-1,2,4-triazol-1-yl)phenyl)ethyl)-6-(3-(ethylsulfonyl)phenyl)-N^4-(2,2,2-trifluoroethyl)pyrido [3,2-d]pyrimidine-2,4-diamine] | < 0.1 µM | 1 to 10 µM | –
24 | CCOc1nc(N[C@H](C)c2ccc(S(N)(=O)=O)cc2)nc2ccc(C#CC3CC3)nc12 [Example 316, (R)-4-(1-(6-(2-cyclopropyl-ethynyl)-4-ethoxypyrido [3,2-d]pyrimidin-2-ylamino)ethyl)benzenesulfonamide] | 0.1 to 0.25 µM | > 10 µM | –
25 | C[C@H](Cn1cncn1)Nc1nc(NCC(F)(F)F)c2nc(C#CC3CC3)ccc2n1 [Example 281, (R)-N^2-(1-(1H-1,2,4-triazol-1-yl)propan-2-yl)-6-(2-cyclopropyl-ethynyl)-N^4-(2,2,2-trifluoro-ethyl)pyrido[3,2-d]pyrimidine-2,4-diamine] | 0.25 to 2 µM | > 10 µM | –
26 | C#Cc1ccc2nc(NCc3ccc(S(N)(=O)=O)cc3)nc(N[C@@H](C)C(F)(F)F)c2n1 [Example 289, (S)-4-((6-ethynyl-4-(1,1,1-trifluoropropan-2-ylamino)pyrido[3,2-d]pyrimidin-2-ylamino)methyl)benzene-sulfonamide] | < 0.1 µM | 1 to 10 µM | –
27 | C=Cc1ccc2nc(NCc3cc(Cl)cc(S(N)(=O)=O)c3)nc(OC3(C)CC3)c2n1 [Example 303, 3-chloro-5-((4-(1-methylcyclo-propoxy)-6-vinylpyrido[3,2-d]pyrimidin-2-ylamino)methyl) benzenesulfonamide] | 0.1 to 0.25 µM | > 10 µM | –
